Assay results: patent publication US20250346600A1, “TRICYCLIC DERIVATIVES AND RELATED USES” (MOMA Therapeutics, Inc., priority 2023, published 2025)

What was measured:
HCT116 cells = experiment: HCT116 (MSI) 7 day viability, CellTiter Glo; format: cell-based; details: Homo sapiens, HCT-116, 168 h, 7 days, read-out: HCT116 (MSI) Viability 7 Day Abs AC50
Method in brief: (§1)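 Luminescence read-out (CellTiter Glo) after 7-day compound exposure at 37 °C. Seeding density 50 cells/well for HCT116, 500 cells/well for HT29. Background from cell-free medium wells; IC50 by four-parameter logistic fit, geometric mean of at least 2 replicates.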

[1] = target: T1, Full length WRN protein (aa 2-1432) (Homo sapiens (Human), UniProt Q14191); experiment: WRN ATPase ADP-Glo biochemical assay, Assay Format A (10 μM ATP); details: 0.25 nM WRN, 100 nM C6.18 ssDNA, 30 min preincubation, read-out: ATPase ADPGlo AC50 (uM)- Assay Format A
Method in brief: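 Sf9-expressed FLAG-AVI-TEV-tagged WRN (0.5 nM) preincubated 30 min with compound (11-point 3-fold dilution). Reaction started with 200 nM C6.18 39-mer ssDNA and 20 μM ATP (addition concentrations), run 30 min at room temperature. ADP measured by ADP-Glo luminescence; IC50 from four-parameter fit, geometric mean of ≥2 runs.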

[2] = target: T1, Full length WRN protein (aa 2-1432); experiment: WRN ATPase ADP-Glo biochemical assay, Assay Format B (100 μM ATP); details: 0.25 nM WRN, 100 nM C6.18 ssDNA, 60 min preincubation, read-out: ATPase ADPGlo AC50 (uM)- Assay Format B
HT29 cells = experiment: HT29 (MSS) 7 day viability, CellTiter Glo; format: cell-based; details: Homo sapiens, HT-29, 168 h, 7 days, read-out: HT29 (MSS) Viability 7 Day CTGAbs AC50
Method in brief: as §1

T1 sequence (Q14191 2-1432): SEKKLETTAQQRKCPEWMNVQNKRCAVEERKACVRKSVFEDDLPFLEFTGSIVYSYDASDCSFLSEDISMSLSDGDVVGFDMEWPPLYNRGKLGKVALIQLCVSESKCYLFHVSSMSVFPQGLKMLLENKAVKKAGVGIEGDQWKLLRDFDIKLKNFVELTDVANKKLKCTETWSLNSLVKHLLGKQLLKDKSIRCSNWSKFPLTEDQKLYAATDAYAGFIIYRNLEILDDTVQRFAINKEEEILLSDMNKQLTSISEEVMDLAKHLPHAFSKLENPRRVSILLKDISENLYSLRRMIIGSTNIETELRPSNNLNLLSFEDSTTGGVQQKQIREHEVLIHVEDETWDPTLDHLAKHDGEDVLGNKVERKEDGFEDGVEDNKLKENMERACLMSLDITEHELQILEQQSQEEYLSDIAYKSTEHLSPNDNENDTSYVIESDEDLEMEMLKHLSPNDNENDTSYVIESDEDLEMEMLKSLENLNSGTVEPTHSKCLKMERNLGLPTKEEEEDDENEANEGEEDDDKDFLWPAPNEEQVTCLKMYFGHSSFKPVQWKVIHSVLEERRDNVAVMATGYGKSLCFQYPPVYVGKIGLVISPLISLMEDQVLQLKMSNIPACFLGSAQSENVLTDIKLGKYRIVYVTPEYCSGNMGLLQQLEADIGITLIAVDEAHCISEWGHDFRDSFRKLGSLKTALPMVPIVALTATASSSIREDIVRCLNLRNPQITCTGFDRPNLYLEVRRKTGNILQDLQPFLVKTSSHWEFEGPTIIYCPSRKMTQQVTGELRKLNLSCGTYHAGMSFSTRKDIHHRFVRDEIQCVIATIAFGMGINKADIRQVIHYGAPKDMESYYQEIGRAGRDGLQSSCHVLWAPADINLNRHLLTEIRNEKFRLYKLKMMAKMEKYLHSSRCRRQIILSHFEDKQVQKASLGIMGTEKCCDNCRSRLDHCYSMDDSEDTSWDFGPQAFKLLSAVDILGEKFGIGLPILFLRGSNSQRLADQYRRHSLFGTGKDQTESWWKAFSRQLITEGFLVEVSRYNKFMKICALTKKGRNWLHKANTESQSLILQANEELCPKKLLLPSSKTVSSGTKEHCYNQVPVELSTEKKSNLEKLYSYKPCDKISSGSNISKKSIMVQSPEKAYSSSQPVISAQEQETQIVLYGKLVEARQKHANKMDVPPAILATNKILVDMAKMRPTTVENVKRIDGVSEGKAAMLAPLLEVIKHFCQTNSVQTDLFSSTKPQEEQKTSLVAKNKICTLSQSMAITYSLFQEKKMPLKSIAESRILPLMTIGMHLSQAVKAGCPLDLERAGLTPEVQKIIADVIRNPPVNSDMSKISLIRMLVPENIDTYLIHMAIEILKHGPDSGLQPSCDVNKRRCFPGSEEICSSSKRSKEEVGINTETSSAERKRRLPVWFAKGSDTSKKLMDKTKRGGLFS

| AC50 [1] | AC50 [2] | Compound | AC50 (HCT116 cells) | AC50 (HT29 cells) |
| --- | --- | --- | --- | --- |
| 0.005 to 0.015 µM | > 0.055 µM | C=CC(=O)N1CCc2nn(-c3ccc(C(C)C)cc3)c3c2C(C1)N(C(=O)c1cnc(C(F)(F)F)c(OC2CNC2)c1)CC3 (stereo not shown) [Compound 60, 1-(5-(5-(azetidin-3-yloxy)-6-(trifluoromethyl)nicotinoyl)-2-(4-isopropylphenyl)-2,3,4,5,5a,6,8,9-octahydro-7H-1,2,5,7-tetraazabenzo[cd]azulen-7-yl)prop-2-en-1-one] | > 1000 nM | > 3000 nM |
| < 0.0015 µM | 0.005 to 0.015 µM | C=CC(=O)N1CCc2nn(-c3ccc(CC(F)(F)F)cc3O)c3c2C(C1)N(C(=O)c1ccc(Br)c2[nH]cnc12)CC3 (stereo not shown) [Compound 2, 1-(5-(7-bromo-1H-benzo[d]imidazole-4-carbonyl)-2-(2-hydroxy-4-(2,2,2-trifluoroethyl)phenyl)-2,3,4,5,5a,6,8,9-octahydro-7H-1,2,5,7-tetraazabenzo[cd]azulen-7-yl)prop-2-en-1-one] | 1 to 100 nM | > 3000 nM |
| < 0.0015 µM | 0.0015 to 0.005 µM | C=CC(=O)N1CC(OC)c2nn(-c3ccc(C4CCC4)cc3)c3c2C(C1)N(C(=O)c1ccc(Br)c2[nH]cnc12)CC3 (stereo not shown) [Compound 27, 1-(5-(7-bromo-1H-benzo[d]imidazole-4-carbonyl)-2-(4-cyclobutylphenyl)-9-methoxy-2,3,4,5,5a,6,8,9-octahydro-7H-1,2,5,7-tetraazabenzo[cd]azulen-7-yl)prop-2-en-1-one] | 1 to 100 nM | > 3000 nM |
| 0.0015 to 0.005 µM | 0.015 to 0.055 µM | C=CC(=O)N1CCc2nn(-c3ccc(C4CCC4)cc3O)c3c2C(C1)N(C(=O)c1ncc(C(F)(F)F)c(N)n1)CC3 (stereo not shown) [Compound 159, 1-(5-(4-amino-5-(trifluoromethyl)pyrimidine-2-carbonyl)-2-(4-cyclobutyl-2-hydroxyphenyl)-2,3,4,5,5a,6,8,9-octahydro-7H-1,2,5,7-tetraazabenzo[cd]azulen-7-yl)prop-2-en-1-one] | 1 to 100 nM | > 3000 nM |
| < 0.0015 µM | 0.005 to 0.015 µM | C=CC(=O)N1CCc2nn(-c3ccc(C4CCC4)cc3O)c3c2C(C1)N(C(=O)c1ccc(Br)c2nc(CCO)[nH]c12)CC3 (stereo not shown) [Compound 148, 1-(5-(4-bromo-2-(2-hydroxyethyl)-1H-benzo[d]imidazole-7-carbonyl)-2-(4-cyclobutyl-2-hydroxyphenyl)-2,3,4,5,5a,6,8,9-octahydro-7H-1,2,5,7-tetraazabenzo[cd]azulen-7-yl)prop-2-en-1-one] | 1 to 100 nM | > 3000 nM |
| < 0.0015 µM | 0.005 to 0.015 µM | C=CC(=O)N1CCc2nn(-c3ccc(C(C)C)cc3)c3c2C(C1)N(C(=O)c1ccc(Br)c2[nH]c(N)nc12)CC3 (stereo not shown) [Compound 8, 1-(5-(2-amino-7-bromo-1H-benzo[d]imidazole-4-carbonyl)-2-(4-isopropylphenyl)-2,3,4,5,5a,6,8,9-octahydro-7H-1,2,5,7-tetraazabenzo[cd]azulen-7-yl)prop-2-en-1-one] | 1 to 100 nM | > 3000 nM |
| < 0.0015 µM | 0.005 to 0.015 µM | C=CC(=O)N1CCc2nn(-c3ccc(C4CCC4)cc3O)c3c2C(C1)N(C(=O)c1cnc(C(F)(F)F)c(O)c1)CC3 (stereo not shown) [Compound 25, 1-(2-(4-cyclobutyl-2-hydroxyphenyl)-5-(5-hydroxy-6-(trifluoromethyl)nicotinoyl)-2,3,4,5,5a,6,8,9-octahydro-7H-1,2,5,7-tetraazabenzo[cd]azulen-7-yl)prop-2-en-1-one] | 1 to 100 nM | > 3000 nM |
| 0.0015 to 0.005 µM | 0.015 to 0.055 µM | C=CC(=O)N1CCOc2nn(-c3ccc(C4CCC4)cc3O)c3c2C(C1)N(C(=O)c1ccc(Br)c2[nH]cnc12)CC3 (stereo not shown) [Compound 39, 1-(5-(7-bromo-1H-benzo[d]imidazole-4-carbonyl)-2-(4-cyclobutyl-2-hydroxyphenyl)-2,3,4,5,5a,6,8,9-octahydro-7H-10-oxa-1,2,5,7-tetraazacycloocta[cd]inden-7-yl)prop-2-en-1-one] | 1 to 100 nM | > 3000 nM |
| < 0.0015 µM | 0.005 to 0.015 µM | C=CC(=O)N1CCc2nn(-c3ccc(C4CC4)cc3O)c3c2C(C1)N(C(=O)c1ccc(Br)c2[nH]cnc12)CC3 (stereo not shown) [Compound 5, 1-(5-(7-bromo-1H-benzo[d]imidazole-4-carbonyl)-2-(4-cyclopropyl-2-hydroxyphenyl)-2,3,4,5,5a,6,8,9-octahydro-7H-1,2,5,7-tetraazabenzo[cd]azulen-7-yl)prop-2-en-1-one] | 1 to 100 nM | > 3000 nM |
| 0.005 to 0.015 µM | 0.015 to 0.055 µM | C=CC(=O)N1CCc2nn(-c3ccc(C4CCC4)cc3O)c3c2C(C1)N(C(=O)c1ccc(OC(F)(F)F)cc1)CC3 (stereo not shown) [Compound 107, 1-(2-(4-cyclobutyl-2-hydroxyphenyl)-5-(4-(trifluoromethoxy)benzoyl)-2,3,4,5,5a,6,8,9-octahydro-7H-1,2,5,7-tetraazabenzo[cd]azulen-7-yl)prop-2-en-1-one] | 100 to 250 nM | > 3000 nM |
| 0.0015 to 0.005 µM | 0.005 to 0.015 µM | C=CC(=O)N1CCc2nn(-c3ccc(C4CC4)cc3)c3c2C(C1)N(C(=O)c1ccc(Br)nc1N)CC3 (stereo not shown) [Compound 117, 1-(5-(2-amino-6-bromonicotinoyl)-2-(4-cyclopropylphenyl)-2,3,4,5,5a,6,8,9-octahydro-7H-1,2,5,7-tetraazabenzo[cd]azulen-7-yl)prop-2-en-1-one] | 1 to 100 nM | > 3000 nM |
| < 0.0015 µM | 0.005 to 0.015 µM | C=CC(=O)N1CC(OCc2cccnc2)c2nn(-c3ccc(C4CC4)cc3)c3c2C(C1)N(C(=O)c1cnc(C(F)(F)F)cc1N)CC3 (stereo not shown) [Compound 251, 1-(5-(4-amino-6-(trifluoromethyl)nicotinoyl)-2-(4-cyclopropylphenyl)-9-(pyridin-3-ylmethoxy)-2,3,4,5,5a,6,8,9-octahydro-7H-1,2,5,7-tetraazabenzo[cd]azulen-7-yl)prop-2-en-1-one] | 1 to 100 nM | > 3000 nM |
| < 0.0015 µM | 0.0015 to 0.005 µM | C=CC(=O)N1CC(O)c2nn(-c3ccc(C4CCC4)cc3)c3c2C(C1)N(C(=O)c1ccc(Br)c2[nH]c(C(F)F)nc12)CC3 (stereo not shown) [Compound 160, 1-(5-(7-bromo-2-(difluoromethyl)-1H-benzo[d]imidazole-4-carbonyl)-2-(4-cyclobutylphenyl)-9-hydroxy-2,3,4,5,5a,6,8,9-octahydro-7H-1,2,5,7-tetraazabenzo[cd]azulen-7-yl)prop-2-en-1-one] | 1 to 100 nM | > 3000 nM |
